In paper PMC5352194, “Toward the development of a novel non-RGD cyclic peptide drug conjugate for treatment of human metastatic melanoma” (Oncotarget, 2016):

Columns and labels:
WM-266-4 cells = assay: Confocal analysis of intracellular localization of CPT in live cells; assay type: cell-based, human; conditions: live WM-266-4 cells, 10 μM, 1 h, CPT fluorescence
Source text: Fluorescent images of ALOS4-FITC were acquired by Photometrics CoolSNAP HQ2 camera mounted on an Olympus iX81 fluorescent microscope. For confocal microscopy analysis the cells were transfected with a plasmid expressing GFP-fused histone H1E (pH1E-GFP) using Xfect polymer (ST0152, Clontech Laboratories, CA, USA) and were stained with CytoPainter Lysosomal Staining Kit - Red Fluorescence (ab112137, Abcam, Cambridge, MA, USA). Images were collected with a Zeiss LSM700 confocal microscope.

[1] = Chemo-stability (lactone ring opening), LC-MS; assay type: physicochemical; conditions: chemical stability, 0.1 mM in PBS pH 7.4, 37°C, 5 h incubation, samples injected twice
Method: Electron spray mass spectra (ESI-MS) were obtained using an Autoflex III smart-beam (MALDI, Bruker), Q-TOF micro (Waters) or an LCQ Fleet™ ion trap mass spectrometer (Finnigan/Thermo). HPLC/LC-MS analyses were made using Agilent infinity 1260 connected to Agilent quadruple LC-MS 6120 series equipped with ZORBAX SB-C18, 50 × 2.1 mm, 1.8 μm column. In all cases the eluent solvents were A (0.1% TFA in H2O) and B (0.1% TFA in ACN) and the elution gradient profile was: 100% A for first 4 min, 8 min (from min 4 to min 12) during which it reached 100% B, 4 min (from min 12 to min 16) of 100% B, 2 min (from min 16 to min 18) during which it returned back to A, and 2 min (from min 18 to min 20) of 100% A. The UV detection was at 254 nm. Column temperature was kept at 50°C. The flow rate was of 0.4 ml/min. The MS fragmentor was tuned on 100V on positive or negative mode.
0.1 mM CPT and ALOS4-CPT were incubated in acetate buffer at pH 4.5 and in PBS at pH 7.4 at 37°C. During the incubation period (24h - 144h), aliquots were removed at different time intervals, filtered and analyzed by LC-MS.

γH2A.X in HEK293 cells = assay: Western blot, γH2A.X (DSBs) in HEK293 cells; assay type: cell-based, human; conditions: 3 hours
Method: (§1) The cells were scraped and washed with PBS buffer. Cell lysates were prepared by sonication in 1 X SDS sample buffer supplemented with protease inhibitor cocktail (MBS539134, Millipore) and boiling for 10 min. The proteins were separated by SDS-PAGE and transferred to nitrocellulose membranes. The following antibodies were used for western blotting: active caspase 3 (C8487, Sigma), γH2AX (05-636, Millipore) and histone H3 (05-928, Millipore). The band intensities in a representative experiment were quantified by the ImageJ program.

[2] = test system: active caspase 3 in HEK293 cells; assay: Western blot, active caspase 3 in HEK293 cells; assay type: cell-based, human
Method: as §1

[3] = test system: WM-266-4 human metastatic melanoma cells; assay: Cell survival test (XTT assay), WM-266-4; assay type: cell-based; conditions: WM-266-4 cells, 10μM, 48 hours, three repeats in quadruplicates
Method: (§2) The cytotoxicity of the compounds was determined by measuring the mitochondrial enzyme activity, using a commercial XTT assay kit (#20-30-100, Biological Industries, Beit-Haemek, Israel) according to the manufacturer protocol using 2×10^3 cells/well of a 96–well plate. The cells were cultured for 24 hours in growth medium followed by additional 48 hours with growth medium supplemented with different concentrations of the tested substances. The absorbance of the XTT reagent was measured with a TECAN Infinite M200 ELISA reader. The absorbencies were normalized to the absorbance of cells grown in medium and solvent. All the tests were repeated three times in quadruplicates.

[4] = test system: non-malignant HEK293 cells; assay: Cell survival test (XTT assay), HEK293; assay type: cell-based, human; conditions: 48 hours, XTT (experiment repeated as for WM-266-4, 10μM), three repeats in quadruplicates
Method: as §2

SMILES	Intracellular localization of CPT (WM-266-4 cells)	CPT that underwent lactone ring opening to carboxylate [1] [%]	Increase in the levels of γH2A.X (γH2A.X in HEK293 cells) [fold]	Increase in the levels of active caspase 3 ([2]; 3 hours) [fold]	Increase in the levels of active caspase 3 ([2]; 24 hours)	Cell survival, % of the control cells [3] [%]	Cell survival, % of the control cells [4] [%]
CC[C@@]1(O)C(=O)OCc2c1cc1n(c2=O)Cc2cc3ccccc3nc2-1 [CPT, Camptothecin]	accumulation of CPT inside the nucleus and to some less degree in the lysosome	~40	~2	~2	more than 5 fold	65	16
COc1cc([C@@H]2c3[nH]c4ccccc4c3C[C@H]3COC(=O)N32)cc(OC)c1O [AZA, Azatoxin]	–	–	–	–	–	68	44
CN(C)CCN1C(=O)c2cccc3cc(N)cc(c23)C1=O [AM, Amonafide]	–	–	–	–	–	48	27
